Test: Radiochemical stability in isotonic NaCl solution (rad-TLC)
Assay type: physicochemical
Conditions: 37 °C
Protocol: The stability of PET probes [^18F]2 and [^18F]6 was measured in isotonic NaCl solution (0.9% NaCl) and mouse and human serums at 37 °C for up to 120 min by rad-TLC at 0 min, 30 min, 60 min and 120 min post incubation. The results obtained are presented in Fig. 5 and SI-Figs. S10–S15, SI-Table S1. […] The plausible explanation of the instability of [^18F]6 could be attributed to the covalent interaction of [^18F]6’s SO2F group with primary amines of amino acid residues present in the protein rich mouse and human serums. In fact, in an unrelated study, Zhao et al. reported formation of sulfonamide bond between sulfuryl fluoride and primary amine of conserved lysine residues of different kinases. […] Based on 2’s favorable blood–brain barrier permeability, nanomolar binding affinity and PET probe [^18F]2’s excellent stability in both mouse and human serums, further in vivo evaluations were performed only with PET probe [^18F]2.
Stability of [^18F]2 and [^18F]6 was assessed in isotonic NaCl solution and human and mouse serums. To perform this stability assay, 100 µL of [^18F]2 (~ 37.0 MBq) or 100 µL of [^18F]6 (~ 37.0 MBq) as in final formulation was added to 100 µL of human serum or mouse serum in a microcentrifuge tube. The resultant mixture was incubated at 37 °C for 120 min. To assess the radiochemical stability of the probes, a small aliquot (~ 0.5 µL) was taken out from the mixture in triplicate at 0 min, 30 min, 60 min and 120 min during incubation, and analyzed on a rad-TLC using 0.5:9.5 methanol: chloroform as a mobile phase using i-TLC to estimate the stability of [^18F]2 or [^18F]6 at different time points post-incubation. After Stability preparative processes initial i-TLC development was considered as 0 min.

Measured: Percentage of intact probe

O=C(Nc1cnccc1-c1ccc([18F])cc1)c1ccnc(NC(=O)C2CC2)c1 [[^18F]2]
100 ± 0.0%: 0 min | 30 min | 60 min

— paper PMC11237012, “Synthesis and preliminary evaluation of novel PET probes for GSK-3 imaging” (Scientific Reports, 2024)
